From article PMC3930709, “Selective Activation of hTRPV1 by N-Geranyl Cyclopropylcarboxamide, an Amiloride-Insensitive Salt Taste Enhancer” (PLoS ONE, 2014)

How the values were obtained:
hTRPA1 [1] = biological target: T1, hTRPA1 (Homo sapiens, UniProt O75762); assay: Ca2+ imaging (Fura-2 AM) of hTRPA1-expressing Flp-In 293 cells; assay type: cell-based; conditions: RR 30 µM, HC-030031 100 µM
T1 construct: expressed in transfected cells
Description: Flp-In 293 cell lines stably expressing hTRPA1constructed as previously reported was a gift from the professor […] at University of Tokyo. The hTRPA1-expressing cells were cultured in DMEM containing 10% FBS and 0.02% hygromycin B (Invitrogen). Flp-In 293 cell lines were maintained in DMEM containing 10% FBS. All cells were incubated at 37°C in a humidified atmosphere of 5% CO2. […] Mock-transfected HEK293T cells, hTRPV1-expressing HEK293T cells, non-hTRPA1-expressing Flp-In 293 cells, and hTRPA1-expressing Flp-In 293 cells grown in 96-well black-wall plates were rinsed with assay buffer (130 mM NaCl, 10 mM glucose, 5 mM KCl, 2 […]2, 1.2 mM MgCl2, and 10 mM HEPES, pH 7.4) and loaded with 5 μM Fura-2 AM (Invitrogen) for 30 min at 27°C. The cells were washed with assay buffer and treated with ligands. […] The fluorescence intensities of Fura-2 excited at 340 and 380 nm were simultaneously measured at 510 nm using a computer-controlled filter changer (Lambda DG4; Sutter, San Rafael, CA, USA), an Andor Luca CCD camera (Andor Technology, Belfast, UK), and an inverted fluorescence microscope (IX-71; Olympus, Tokyo, Japan). Intracellular calcium images were recorded every 3-s for 60-s and analyzed using MetaFluor software (Molecular Devices, Sunnyvale, CA, USA).

hTRPA1 [2] = biological target: T1, hTRPA1; assay: Whole-cell patch clamp recording, cells stably expressing hTRPA1; assay type: cell-based
Description: (§1) Flp-In 293 cell lines stably expressing hTRPA1constructed as previously reported was a gift from the professor Takumi Misaka at University of Tokyo. The hTRPA1-expressing cells were cultured in DMEM containing 10% FBS and 0.02% hygromycin B (Invitrogen). Flp-In 293 cell lines were maintained in DMEM containing 10% FBS. All cells were incubated at 37°C in a humidified atmosphere of 5% CO2.
(§2) The whole-cell configuration was used to voltage-clamp at room temperature (22–25°C). Electrodes pulled from glass micropipette capillaries (Sutter Instrument) had resistances of 2–2.5 MΩ, and series resistance errors were compensated >60%. Fast and slow capacitances were compensated before the application of test-pulse. Recordings were performed using aHEKAEPC-10 amplifier with pulse software (HEKA Elektronik). The pipette solution contained: 140 mM KCl, 5 mM MgCl2, 10 mM HEPES, 0.1 mM 1,2-bis(2-aminophenoxy) ethane N,N,N’,N’-tetraacetic acid(BAPTA), 3 mM Na2ATP, and 0.1 mM Na3GTP, adjusted to pH 7.4 with KOH. The external Ringer’s solution used for recording TRPV1 and TRPA1 currents contained: 150 mM NaCl, 5 mM KCl, 1 mM MgCl2, 2 mM EGTA, 10 mM Glucose, and 10 mM HEPES, adjusted to pH 7.4 with NaOH. TRPV1 and TRPA1 currents were recorded by holding the cell at −80 mV. The external Ringer’s solution used for recording ASIC current contained: 160 mM NaCl, 5 mM KCl, 1 mM MgCl2, 2 mM CaCl2, and 10 mM HEPES, adjusted to pH 7.4 with tetramethylammonium hydroxide. For acidic solution of pH 6.0, HEPES was replaced with MES. ASIC currents were recorded by holding the cell at −70 mV. Reagents were obtained as follows: BAPTA, Na2ATP, Na3GTP, EGTA, and tetramethylammonium hydroxide (Sigma), HEPES (Calbiochem), MES (Alfa Aesar), and other chemicals (Merck).

hTRPA1 [3] = biological target: T1, hTRPA1; assay: Measurement of Ca2+ influx (Fluo-4 AM, FlexStation III) in hTRPA1-expressing cells; assay type: cell-based; conditions: for block of NGCC activity on hTRPA1-expressing cells (dose-response): RR 30 µM, HC-030031 100 µM; for block of AITC activity on hTRPA1-expressing cells (dose-response): RR 30 µM: below 30 µM AITC, HC-030031 100 µM: below 10 µM AITC
Description: as §1
(§3) The ligand-induced changes on cytosolic Ca^2+ level were monitored by a FlexStation III microplate reader (Molecular Devices). Fluo-4 AM (5 µM, Molecular Probes, Eugene, OR, USA) in assay buffer was loaded to the cells in 96-well black-wall plates for 30 min at 27°C. After dye treatment, each chemical was added to each well at 17 s and changes on intracellular Ca^2+ level were monitored by relative fluorescence units (ΔRFU, Ex = 485 nm; Em = 516 nm) for 120 s. […] The responses from at least three wells receiving the same stimulus were averaged. Plots of amplitude versus concentration were fitted using the Hill equation.

hTRPV1 [4] = biological target: T2, hTRPV1 (Homo sapiens, UniProt Q8NER1); assay: Measurement of Ca2+ influx (Fluo-4 AM, FlexStation III) in hTRPV1-expressing cells; assay type: cell-based; conditions: RR 30 µM or CPZ 1 µM added with agonist
T2 construct: expressed in transfected cells; host or cells: HEK293T
Description: as §3, with “hTRPV1 was constructed by amplification of the hTRPV1 region (NCBI accession number: NG_029716.1) and cloned into pEAK10 vector (Edge Biosystems, Gaithersburg, MD, USA). The hTRPV1 construct was amplified by PCR and the nucleotide sequence of the hTRPV1 gene was confirmed by sequencing with an ABI 3130 DNA genetic analyzer (Applied Biosystems, Foster City, CA, USA). […] After 6 h, transfected cells were seeded onto 96-well black-wall plate (BD Falcon Labware, Franklin Lakes, NJ, USA) for 18–26 h prior to their use in an experiment. The ligand-induced” for “The ligand-induced”

hTRPV1 [5] = biological target: T2, hTRPV1; assay: Ca2+ imaging (Fura-2 AM) of hTRPV1-expressing HEK293T cells; assay type: cell-based; conditions: NGCC 30 µM; RR 30 µM, CPZ 1 µM
Description: hTRPV1 was constructed by amplification of the hTRPV1 region (NCBI accession number: NG_029716.1) and cloned into pEAK10 vector (Edge Biosystems, Gaithersburg, MD, USA). The hTRPV1 construct was amplified by PCR and the nucleotide sequence of the hTRPV1 gene was confirmed by sequencing with an ABI 3130 DNA genetic analyzer (Applied Biosystems, Foster City, CA, USA). […] After 6 h, transfected cells were seeded onto 96-well black-wall plate (BD Falcon Labware, Franklin Lakes, NJ, USA) for 18-26 h prior to their use in an experiment. Mock-transfected HEK293T cells, hTRPV1-expressing HEK293T cells, non-hTRPA1-expressing Flp-In 293 cells, and hTRPA1-expressing Flp-In 293 cells grown in 96-well black-wall plates were rinsed with assay buffer (130 mM NaCl, 10 mM glucose, 5 mM KCl, 2 […]2, 1.2 mM MgCl2, and 10 mM HEPES, pH 7.4) and loaded with 5 μM Fura-2 AM (Invitrogen) for 30 min at 27°C. […] The fluorescence intensities of Fura-2 excited at 340 and 380 nm were simultaneously measured at 510 nm using a computer-controlled filter changer (Lambda DG4; Sutter, San Rafael, CA, USA), an Andor Luca CCD camera (Andor Technology, Belfast, UK), and an inverted fluorescence microscope (IX-71; Olympus, Tokyo, Japan). Intracellular calcium images were recorded every 3-s for 60-s and analyzed using MetaFluor software (Molecular Devices, Sunnyvale, CA, USA).

hTRPV1 [6] = biological target: T2, hTRPV1; assay: Whole-cell patch clamp recording, hTRPV1-expressing HEK293T cells; assay type: cell-based; conditions: capsaicin 100 nM; NGCC 10^3 µM; holding -80 mV
Description: Mouse ASIC1a (mASIC1a) was a kind gift from John A. Wemmie (University of Iowa, IA, USA). For electrophysiological experiments, HEK293T cells were cultured in DMEM supplemented with 10% FBS and 0.2% penicillin/streptomycin and transiently transfected using Lipofectamine 2000 (Invitrogen) with various cDNAs. For TRPV1 channel expression, cells were transfected with hTRPV1, for ASIC1a homomeric channel expression, cells were transfected with mASIC1a. When needed, 0.1–0.2 µg of cDNA encoding tetrameric red fluorescence protein (DsRed) was co-transfected with the cDNA as a marker for successfully transfected cells. For non-transfected cells, cells were transfected with 0.1–0.2 µg of cDNA encoding DsRed alone. The next day, cells were plated onto poly-L-lysine-coated coverslip chips, and fluorescent cells were studied within 1–2 days.
as §2

[7] = system: Bz-insensitive NaCl CT response; parameters: method as in PMID 15146042; conditions: rat CT recordings, cited from earlier work

T1 sequence (O75762 whole entry): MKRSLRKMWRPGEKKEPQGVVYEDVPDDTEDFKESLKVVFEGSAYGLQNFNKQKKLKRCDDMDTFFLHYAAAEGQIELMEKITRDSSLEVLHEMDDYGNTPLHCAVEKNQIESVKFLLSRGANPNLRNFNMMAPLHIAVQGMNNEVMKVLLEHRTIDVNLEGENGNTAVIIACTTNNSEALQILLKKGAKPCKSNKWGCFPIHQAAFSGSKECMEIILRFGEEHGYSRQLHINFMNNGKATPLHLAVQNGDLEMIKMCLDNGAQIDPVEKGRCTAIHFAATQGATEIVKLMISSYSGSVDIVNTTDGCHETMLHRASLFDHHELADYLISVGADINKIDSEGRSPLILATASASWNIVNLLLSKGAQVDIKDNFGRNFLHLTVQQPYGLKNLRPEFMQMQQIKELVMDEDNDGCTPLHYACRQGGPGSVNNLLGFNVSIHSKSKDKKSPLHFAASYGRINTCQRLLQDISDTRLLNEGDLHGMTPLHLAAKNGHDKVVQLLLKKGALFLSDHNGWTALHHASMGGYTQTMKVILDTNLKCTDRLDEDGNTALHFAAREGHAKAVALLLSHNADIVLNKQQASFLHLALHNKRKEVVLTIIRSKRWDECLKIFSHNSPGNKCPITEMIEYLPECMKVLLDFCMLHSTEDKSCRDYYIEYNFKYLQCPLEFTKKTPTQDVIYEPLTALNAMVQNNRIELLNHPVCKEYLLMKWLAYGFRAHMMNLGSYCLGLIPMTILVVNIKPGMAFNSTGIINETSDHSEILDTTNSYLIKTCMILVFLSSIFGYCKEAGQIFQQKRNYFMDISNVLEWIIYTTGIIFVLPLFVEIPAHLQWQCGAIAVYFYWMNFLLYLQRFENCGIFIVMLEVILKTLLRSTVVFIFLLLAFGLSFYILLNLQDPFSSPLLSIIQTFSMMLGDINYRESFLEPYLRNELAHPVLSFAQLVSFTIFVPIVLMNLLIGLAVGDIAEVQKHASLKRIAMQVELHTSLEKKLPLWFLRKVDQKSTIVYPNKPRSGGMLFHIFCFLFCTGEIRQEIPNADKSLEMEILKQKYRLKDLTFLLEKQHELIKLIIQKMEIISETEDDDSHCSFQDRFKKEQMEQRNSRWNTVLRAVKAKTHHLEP
T2 sequence (Q8NER1 whole entry): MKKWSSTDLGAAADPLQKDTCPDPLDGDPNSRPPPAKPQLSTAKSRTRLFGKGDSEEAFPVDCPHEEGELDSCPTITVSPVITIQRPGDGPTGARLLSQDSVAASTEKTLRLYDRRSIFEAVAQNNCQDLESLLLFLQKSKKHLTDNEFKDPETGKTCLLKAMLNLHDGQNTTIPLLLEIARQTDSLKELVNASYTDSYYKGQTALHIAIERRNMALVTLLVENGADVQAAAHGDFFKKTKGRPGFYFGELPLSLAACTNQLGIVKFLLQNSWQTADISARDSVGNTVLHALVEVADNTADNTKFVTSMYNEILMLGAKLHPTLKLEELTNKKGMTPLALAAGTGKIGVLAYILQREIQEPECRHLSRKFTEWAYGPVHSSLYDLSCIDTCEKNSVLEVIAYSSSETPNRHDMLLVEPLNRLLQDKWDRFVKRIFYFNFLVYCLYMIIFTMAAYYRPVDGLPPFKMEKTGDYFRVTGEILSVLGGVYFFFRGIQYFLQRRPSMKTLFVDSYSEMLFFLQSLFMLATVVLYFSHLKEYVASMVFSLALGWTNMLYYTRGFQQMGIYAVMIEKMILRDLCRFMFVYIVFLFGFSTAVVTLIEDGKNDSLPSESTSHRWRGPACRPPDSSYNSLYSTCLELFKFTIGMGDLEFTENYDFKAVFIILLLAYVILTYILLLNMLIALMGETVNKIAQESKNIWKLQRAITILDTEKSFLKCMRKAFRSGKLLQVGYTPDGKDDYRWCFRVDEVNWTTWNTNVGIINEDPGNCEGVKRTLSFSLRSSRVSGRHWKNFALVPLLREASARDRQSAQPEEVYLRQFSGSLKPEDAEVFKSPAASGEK

For `CC(C)c1ccc(NC(=O)Cn2cnc3c2c(=O)n(C)c(=O)n3C)cc1` [HC-030031], which “inhibition of Ca2+ influx induced by 10 µM AITC and 30 µM NGCC in hTRPA1-expressing cells” value (hTRPA1 [1]) is on record?
The value was “significantly inhibited”.

What about the “block of NGCC-induced currents in hTRPA1-expressing cells” value (hTRPA1 [2]; HC-030031 100 µM) of the same compound?
Its value is “almost completely inhibited”.

What about the “block of AITC-induced current” value (hTRPA1 [2]; HC-030031 100 µM preincubation 30 seconds, AITC 100 µM) of the same compound?
The value was “partially blocked”.

And the “normalized current density of NGCC-induced current after wash out of HC-030031” value (hTRPA1 [2]; n = 4)?
The value was 1.37±0.07.

And the “normalized current density of NGCC-induced current under HC-030031” value (hTRPA1 [2]; n = 4)?
The value was 0.25±0.03.

What about the “block of NGCC activity on hTRPA1-expressing cells (dose-response)” value (hTRPA1 [3]) of the same compound?
Its value is “almost blocked NGCC activity”.

And the “block of AITC activity on hTRPA1-expressing cells (dose-response)” value (hTRPA1 [3])?
Its value is “partially blocked AITC activity”.

What does the source list for `N.N.N.N.N.N.N.N.N.N.N.N.N.N.[Cl-].[Cl-].[Cl-].[Cl-].[Cl-].[Cl-].[O-2].[O-2].[Ru+3].[Ru+3].[Ru+4]` [RR, ruthenium red]?
inhibition of Ca2+ influx induced by 10 µM AITC and 30 µM NGCC in hTRPA1-expressing cells (hTRPA1 [1]): significantly inhibited; block of capsaicin- and NGCC-induced hTRPV1 activation (dose-response) (hTRPV1 [4]): inhibited capsaicin- and NGCC-induced hTRPV1 activation, but was less effective than CPZ; block of NGCC activity on hTRPA1-expressing cells (dose-response) (hTRPA1 [3]): almost blocked NGCC activity; block of AITC activity on hTRPA1-expressing cells (dose-response) (hTRPA1 [3]): partially blocked AITC activity; block of NGCC-induced Ca2+ influx in hTRPV1-expressing cells (hTRPV1 [5]): blocked NGCC activity to baseline levels

With `COc1cc(CNC(=O)CCCC/C=C/C(C)C)ccc1O` [capsaicin, Capsaicin] as the compound, how does the “inward current in cells expressing hTRPV1” value (hTRPV1 [6]) read?
Its value is “induced an inward current”.

What about the “effect on the NaCl+Bz CT response at 200 µM” value ([7]; 200 µM) of the same compound?
The value was “completely inhibited”.

What about the “concentration giving the maximum increase in the NaCl+Bz CT response” value [7] of the same compound?
Its value is 40 µM.
